Patent US20130225583A1, “SUBSTITUTED AMINO-TRIAZOLYL PDE10 INHIBITORS” (priority 2010, published 2013)

Molecular target: T1, human PDE10A2 (Homo sapiens, UniProt Q9Y233)
T1 construct: made in house; host or cells: AD293 cells, transiently transfected; The cytosolic supernatant of the lysate served as the enzyme
Test: PDE10 fluorescence polarization (IMAP FP) inhibition assay
Format: biochemical
Conditions: apparent inhibition constant; FAM-labeled cAMP 50 nM; lysate of AD293 cells transfected with human PDE10A2; room temperature; read-out: PDE10a Ki
Experimental: The activity of the compounds in accordance with the present invention as PDE10 inhibitors may be readily determined without undue experimentation using a fluorescence polarization (FP) methodology that is well known in the art (Huang, W., et al., J. Biomol Screen, 2002, 7: 215).
In a typical experiment the PDE 10 inhibitory activity of the compounds of the present invention was determined in accordance with the following experimental method. PDE 10A2 was amplified from human fetal brain cDNA (Clontech, Mountain View, Calif.) using a forward primer corresponding to nucleotides 56-77 of human PDE10A2 (Accession No. AF127480, Genbank Identifier 4894716), containing a Kozak consensus sequence, and a reverse primer corresponding to nucleotides 2406-2413 of human PDE10A2 (Accession No. AF127480, Genbank Identifier 4894716). Amplification with Easy-A polymerase (Stratagene, La Jolla, Calif.) was 95° C. for 2 minutes followed by thirty three cycles of 95° C. for 40 seconds, 55° C. for 30 seconds, and 72° C. for 2 minutes 48 seconds. Final extension was 72° C. for 7 minutes. The PCR product was TA cloned into pcDNA3.2-TOPO (Invitrogen, Carlsbad, Calif.) according to standard protocol. AD293 cells with 70-80% confluency were transiently transfected with human PDE10A2/pcDNA3.2-TOPO using Lipofectamine 2000 according to manufacturer specifications (Invitrogen, Carlsbad, Calif.). Cells were harvested 48 hours post-transfection and lysed by sonication (setting 3, 10×5 sec pulses) in a buffer containing 20 mM HEPES, 1 mM EDTA and protease inhibitor cocktail (Roche). Lysate was collected by centrifugation at 75,000×g for 20 minutes. Supernatant containing the cytoplasmic fraction was used for evaluation of PDE10A2 activity. The fluorescence polarization assay for cyclic nucleotide phosphodiesterases was performed using an IMAP® FP kit supplied by Molecular Devices, Sunnyvale, Calif. (product # R8139). IMAP® technology has been applied previously to phosphodiesterase assays (Huang, W., et al., J. Biomol Screen, 2002, 7: 215). Assays were performed at room temperature in 384-well microtiter plates with an incubation volume of 20.2 μL. Solutions of test compounds were prepared in DMSO and serially diluted with DMSO to yield 8 μL of each of 10 solutions differing by 3-fold in concentration, at 32 serial dilutions per plate. 100% inhibition is determined using a known PDE 10 inhibitor, which can be any compound that is present at 5,000 times its Ki value in the assay described as follows, such as papaverine (see Siuciak, et al. Neuropharmacology (2006) 51:386-396; Becker, et al. Behav Brain Res (2008) 186(2):155-60; Threlfell, et al., J Pharmacol Exp Ther (2009) 328(3):785-795), 2-{4-[pyridin-4-yl-1-(2,2,2-trifluoroethyl)-1H-pyrazol-3-yl]phenoxymethyl}quinoline succinic acid or 2-[4-(1-methyl-4-pyridin-4-yl-1H-pyrazol-3-yl)-phenoxymethyl]quinoline succinic acid (see Schmidt, et al. J Pharmacol Exp Ther (2008) 325:681-690; Threlfell, et al., J Pharmacol Exp Ther (2009) 328(3): 785-795). 0% of inhibition is determined by using DMSO (1% final concentrations). A Labcyte Echo 555 (Labcyte, Sunnyvale, Calif.) is used to dispense 200 nL from each well of the titration plate to the 384 well assay plate. A solution of enzyme ( 1/7000 dilution from aliquots; sufficient to produce 20% substrate conversion) and a separate solution of FAM-labeled cAMP PDE from Molecular Devices (product # R7506), at a final concentration of 50 nM are made in the assay buffer (10 mM Tris HCl, pH 7.2, 10 mM MgCl2, 0.05% NaN3 0.01% Tween-20, and 1 mM DTT). The enzyme is added to the assay plates by the addition of 10 μL of enzyme solution to each well, shaken to mix and incubated at room temperature for 60 minutes. The substrate is then added to the assay plates by the addition of 10 μL of substrate solution to each well, shaken to mix, and incubated at room temperature for 60 minutes. […]

T1 sequence (Q9Y233 267-1055): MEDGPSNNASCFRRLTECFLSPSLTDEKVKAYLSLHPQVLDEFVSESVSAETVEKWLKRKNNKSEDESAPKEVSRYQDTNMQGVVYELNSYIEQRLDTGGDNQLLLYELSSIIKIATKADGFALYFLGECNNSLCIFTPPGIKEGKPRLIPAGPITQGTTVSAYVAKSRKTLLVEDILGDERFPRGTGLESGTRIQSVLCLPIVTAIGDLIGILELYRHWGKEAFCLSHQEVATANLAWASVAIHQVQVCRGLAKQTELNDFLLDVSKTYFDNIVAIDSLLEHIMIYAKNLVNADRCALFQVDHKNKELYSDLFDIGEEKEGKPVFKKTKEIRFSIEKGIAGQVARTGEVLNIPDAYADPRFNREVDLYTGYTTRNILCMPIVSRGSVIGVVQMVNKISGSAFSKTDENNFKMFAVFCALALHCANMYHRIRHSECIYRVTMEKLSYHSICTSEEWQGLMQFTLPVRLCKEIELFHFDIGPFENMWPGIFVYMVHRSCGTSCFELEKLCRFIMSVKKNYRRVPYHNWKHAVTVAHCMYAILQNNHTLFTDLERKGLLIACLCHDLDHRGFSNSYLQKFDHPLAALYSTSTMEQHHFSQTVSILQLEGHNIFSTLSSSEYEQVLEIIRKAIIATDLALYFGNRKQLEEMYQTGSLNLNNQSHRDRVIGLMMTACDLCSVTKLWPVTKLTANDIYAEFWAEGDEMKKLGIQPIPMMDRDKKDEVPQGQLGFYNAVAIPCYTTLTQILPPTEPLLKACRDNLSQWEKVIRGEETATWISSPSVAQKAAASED

| SMILES | Ki [nM] |
| --- | --- |
| COc1ccc(Cc2nc(N)nn2-c2cc(OC3CCCCC3)ncn2)cc1OC [1-61, 1-(6-(cyclohexyloxy)pyrimidin-4-yl)-5-(3,4-dimethoxybenzyl)-1H-1,2,4-triazol-3-amine] | 19 |
| COc1ccc(Cc2nc(N)nn2-c2cc(=O)n(Cc3ccc4ccccc4n3)cn2)cc1OC [1-75, 6-(3-amino-5-(3,4-dimethoxybenzyl)-1H-1,2,4-triazol-1-yl)-3-(quinolin-2-ylmethyl)pyrimidin-4(3H)-one] | 64 |
| COc1ccc(CNc2nc(Cc3ccc(OC)c(OC)c3)n(-c3cc(Oc4cccnc4)nc(C)n3)n2)cc1 [1-77, 5-(3,4-dimethoxybenzyl)-N-(4-methoxybenzyl)-1-(2-methyl-6-(pyridin-3-yloxy)pyrimidin-4-yl)-1H-1,2,4-triazol-3-amine] | 1000 |
| COc1ccc(Cc2nc(N)nn2-c2cc(=O)n(CCc3cccs3)cn2)cc1OC [1-51, 6-(3-amino-5-(3,4-dimethoxybenzyl)-1H-1,2,4-triazol-1-yl)-3-(2-(thiophen-2-yl)ethyl)pyrimidin-4(3H)-one] | 23 |
| COc1ccc(Cc2nc(N)nn2-c2cc(=O)n(Cc3ccccc3C(F)(F)F)cn2)cc1OC [1-50, 6-(3-amino-5-(3,4-dimethoxybenzyl)-1H-1,2,4-triazol-1-yl)-3-(2-(trifluoromethyl)benzyl)pyrimidin-4(3H)-one] | 190 |
| COc1ccc(CNc2nc(Cc3ccc(OC)c(OC)c3)n(-c3ccccc3)n2)cc1 [1-10, 5-(3,4-dimethoxybenzyl)-N-(4-methoxybenzyl)-1-phenyl-1H-1,2,4-triazol-3-amine] | 146 |
| COc1ccc(Cc2nc(N)nn2-c2cc(OCC3CCC3)ncn2)cc1OC [1-62, 1-(6-(cyclobutylmethoxy)pyrimidin-4-yl)-5-(3,4-dimethoxybenzyl)-1H-1,2,4-triazol-3-amine] | 8.6 |
| COc1ccc(Cc2nc(N)nn2-c2cc(OCc3ccc4ccccc4n3)ncn2)cc1OC [1-68, 5-(3,4-dimethoxybenzyl)-1-(6-(quinolin-2-ylmethoxy)pyrimidin-4-yl)-1H-1,2,4-triazol-3-amine] | 760 |
| COc1ccc(Cc2nc(N)nn2-c2cc(=O)n(C(C)C)cn2)cc1OC [1-69, 6-(3-amino-5-(3,4-dimethoxybenzyl)-1H-1,2,4-triazol-1-yl)-3-isopropylpyrimidin-4(3H)-one] | 540 |
| COc1ccc(CNc2nc(Cc3ccc(OC)c(OC)c3)n(-c3ccccn3)n2)cc1 [1-13, 5-(3,4-dimethoxybenzyl)-N-(4-methoxybenzyl)-1-(pyridin-2-yl)-1H-1,2,4-triazol-3-amine] | 780 |
| COc1ccc(CNc2nc(Cc3ccc(OC)c(OC)c3)n(C)n2)cc1 [1-11, 5-(3,4-dimethoxybenzyl)-N-(4-methoxybenzyl)-1-methyl-1H-1,2,4-triazol-3-amine] | 24.8 |
| COc1ccc(Cc2nc(N)nn2-c2cc(=O)n(CC3CCC3)cn2)cc1OC [1-70, 6-(3-amino-5-(3,4-dimethoxybenzyl)-1H-1,2,4-triazol-1-yl)-3-(cyclobutylmethyl)pyrimidin-4(3H)-one] | 640 |
| COc1ccc(Cc2nc(N)nn2-c2cc(=O)n(Cc3ccc(-c4ccncc4)cc3)cn2)cc1OC [1-56, 6-(3-amino-5-(3,4-dimethoxybenzyl)-1H-1,2,4-triazol-1-yl)-3-(4-(pyridin-4-yl)benzyl)pyrimidin-4(3H)-one] | 540 |
| COc1ccc(Cc2nc(N)nn2-c2cc(OCc3cncc(N4CCNCC4)n3)ncn2)cc1OC [1-45, 5-(3,4-dimethoxybenzyl)-1-(6-((6-(piperazin-1-yl)pyrazin-2-yl)methoxy)pyrimidin-4-yl)-1H-1,2,4-triazol-3-amine] | 570 |
| COc1ccc(Cc2nc(N)nn2-c2cc(OC(C)C)ncn2)cc1OC [1-60, 5-(3,4-dimethoxybenzyl)-1-(6-isopropoxypyrimidin-4-yl)-1H-1,2,4-triazol-3-amine] | 370 |
| CCCn1cnc(-n2nc(N)nc2Cc2ccc(OC)c(OC)c2)cc1=O [1-71, 6-(3-amino-5-(3,4-dimethoxybenzyl)-1H-1,2,4-triazol-1-yl)-3-propylpyrimidin-4(3H)-one] | 620 |
| COc1ccc(Cc2nc(N)nn2-c2cc(=O)n(CCc3ccccn3)cn2)cc1OC [1-47, 6-(3-amino-5-(3,4-dimethoxybenzyl)-1H-1,2,4-triazol-1-yl)-3-(2-(pyridin-2-yl)ethyl)pyrimidin-4(3H)-one] | 70 |
| COc1ccc(Cc2nc(N)nn2-c2cc(=O)n(CCN3CCOCC3)cn2)cc1OC [1-48, 6-(3-amino-5-(3,4-dimethoxybenzyl)-1H-1,2,4-triazol-1-yl)-3-(2-morpholinoethyl)pyrimidin-4(3H)-one] | < 3.8 |
| COc1ccccc1COc1cc(-n2nc(N)nc2Cc2ccc(OC)c(OC)c2)ncn1 [1-35, 5-(3,4-dimethoxybenzyl)-1-(6-(2-methoxybenzyloxy)pyrimidin-4-yl)-1H-1,2,4-triazol-3-amine] | 880 |
| COc1ccc(Cc2nc(N)nn2-c2cc(=O)n(CCN3CCNC3=O)cn2)cc1OC [1-57, 6-(3-amino-5-(3,4-dimethoxybenzyl)-1H-1,2,4-triazol-1-yl)-3-(2-(2-oxoimidazolidin-1-yl)ethyl)pyrimidin-4(3H)-one] | 110 |
| COc1ccc(CNc2nc(Cc3ccc(OC)c(OC)c3)n(-c3cc(Oc4ccccn4)nc(C)n3)n2)cc1 [1-80, 5-(3,4-dimethoxybenzyl)-N-(4-methoxybenzyl)-1-(2-methyl-6-(pyridin-2-yloxy)pyrimidin-4-yl)-1H-1,2,4-triazol-3-amine] | 490 |
| COc1ccc(Cc2nc(N)nn2-c2cc(=O)n(Cc3cn4ccccc4n3)cn2)cc1OC [1-55, 6-(3-amino-5-(3,4-dimethoxybenzyl)-1H-1,2,4-triazol-1-yl)-3-(imidazo[1,2-a]pyridin-2-ylmethyl)pyrimidin-4(3H)-one] | 650 |
| COc1ccc(CNc2nc(Cc3ccc(OC)c(OC)c3)n(-c3cc(C#Cc4ccccn4)nc(C)n3)n2)cc1 [1-84, 5-(3,4-dimethoxybenzyl)-N-(4-methoxybenzyl)-1-(2-methyl-6-(pyridin-2-ylethynyl)pyrimidin-4-yl)-1H-1,2,4-triazol-3-amine] | 19 |
| COc1ccc(COc2cc(-n3nc(N)nc3Cc3ccc(OC)c(OC)c3)ncn2)cc1 [1-36, 5-(3,4-dimethoxybenzyl)-1-(6-(4-methoxybenzyloxy)pyrimidin-4-yl)-1H-1,2,4-triazol-3-amine] | 550 |
| COc1ccc(Cc2nc(N)nn2-c2cc(OCc3ccccc3-c3cccs3)ncn2)cc1OC [1-43, 5-(3,4-dimethoxybenzyl)-1-(6-(2-(thiophen-2-yl)benzyloxy)pyrimidin-4-yl)-1H-1,2,4-triazol-3-amine] | 19 |
| COc1ccc(Cc2nc(N)nn2-c2cc(=O)n(Cc3nc4ccccc4s3)cn2)cc1OC [1-73, 6-(3-amino-5-(3,4-dimethoxybenzyl)-1H-1,2,4-triazol-1-yl)-3-(benzo[d]thiazol-2-ylmethyl)pyrimidin-4(3H)-one] | < 3.8 |
| COc1ccc(Cc2nc(N)nn2-c2cc(OCc3ccc4ccccc4c3)ncn2)cc1OC [1-38, 5-(3,4-dimethoxybenzyl)-1-(6-(naphthalen-2-ylmethoxy)pyrimidin-4-yl)-1H-1,2,4-triazol-3-amine] | 54 |
